Laboratory results published in patent publication US8143237B2, “Anti-cancer drugs, and uses relating for malignant melanoma and other cancers” (Kasina Laila Innova Pharmaceuticals Private Limited, priority 2009, dated 2012).
Values after ≈ are worked out from the molar mass of the structure shown.

Tests used:
[1] = system: human malignant melanoma A375 cells; assay: MTT based cell proliferation assay, A375 cells; conditions: A-375, 72 h, at 10 μg/ml, three days
Experimental: (§1) The cytotoxic efficacies of the various selenopheno triazene compounds (compounds 1 to 16) was evaluated in both human malignant melanoma A375 cells and mouse malignant melanoma B16 F0 cells by MTT cell proliferation assay kit (Roche Applied Sciences, Germany). The assay was carried out according to the instruction provided by the vendor. Briefly, equal numbers of cells was plated in 96-well flat-bottomed plates and were incubated with both DTIC and the test compounds (compounds 1 to 16) at various concentrations for a period of three days. […] Finally, the cells were solubilized by adding solubilizing solution and allowed to incubate at 37° C. overnight. After complete solubilization of the formazan crystals, the absorbance was read at 540 nm in a microplate reader (BioRad, USA).

[2] = system: mouse malignant melanoma B16 F0 cells; assay: MTT based cell proliferation assay, B16 F0 cells; conditions: Mus musculus, B16F0, 72 h, MTT; for inhibition at 100 µg/mL: at 100 μg/ml; for inhibition at 100 µg/mL / inhibition at 60 µg/mL: three days; for inhibition at 60 µg/mL: at 60 μg/ml
Experimental: as §1

Q: Which melting point does the source give for CN(C)/N=N/c1cc(C(N)=O)[se]c1C(N)=O [Compound 2, 3-[(dimethylamino)diazenyl]selenophene-2,5-dicarboxamide] here?
A: 266 to 268 °C

Q: For CN(C)/N=N/c1cc(-c2ccccc2)[se]c1C(N)=O [Compound 3, 3-[(dimethylamino)diazenyl]-5-phenylselenophene-2-carboxamide], which inhibition at 10 µg/mL [1] is on record?
A: 14%

Q: And the melting point?
A: 222 to 224 °C

Q: And the inhibition at 100 µg/mL [2]?
A: 30%

Q: With CN(C)/N=N/c1cc(C(C)(C)C)[se]c1C(N)=O [Compound 4, 3-[(dimethylamino)diazenyl]-5-(tert-butyl)selenophene-2-carboxamide] as the compound, how does the inhibition at 10 µg/mL [1] read?
A: 0.5%

Q: What about the melting point of the same compound?
A: 218 to 220 °C

Q: And the inhibition at 60 µg/mL [2]?
A: 34%

Q: Which results are given for CN(C)/N=N/c1c(C(N)=O)[se]c2c1CCCC2 [Compound 5, 3-[(dimethylamino)diazenyl]-4,5,6,7-tetrahydrobenzo[1,2-b]selenophene-2-carboxamide]?
A: melting point: 198 to 202 °C; inhibition at 60 µg/mL [2]: 0.41%

Q: With CN(C)/N=N/c1c(C(N)=O)[se]c2ncccc12 [Compound 6, 3-[(dimethylamino)diazenyl]selenopheno[2,3-b]pyridine-2-carboxamide] as the compound, how does the melting point read?
A: 230 to 232 °C

Q: What about the inhibition at 60 µg/mL [2] of the same compound?
A: 4%

Q: Which results are given for CN(C)/N=N/c1cc(-c2ccccc2)[se]c1C(=O)O [Compound 7, 3-[(dimethylamino)diazenyl]-5-phenylselenophene-2-carboxylic acid]?
A: melting point: 212 to 214 °C; inhibition at 100 µg/mL [2]: 5%

Q: With CN(C)/N=N/c1cc(C(C)(C)C)[se]c1C(=O)O [Compound 8, 3-[(dimethylamino)diazenyl]-5-(tert-butyl)selenophene-2-carboxylic acid] as the compound, how does the inhibition at 10 µg/mL [1] read?
A: 24%

Q: And the melting point?
A: 120 to 122 °C

Q: What about the IC50 ([2]; three days incubation, read-out: Cell proliferation inhibition in B16F0 cells, IC50) of the same compound?
A: 43.6 µg/mL (≈ 144 µM)

Q: For CN(C)/N=N/c1c(C(=O)O)[se]c2c1CCCC2 [Compound 9, 3-[(dimethylamino)diazenyl]-4,5,6,7-tetrahydrobenzo[1,2-b]selenophene-2-carboxylic acid], which melting point is on record?
A: 100 to 102 °C

Q: And the inhibition at 60 µg/mL [2]?
A: 32%

Q: What does the source list for CN(C)/N=N/c1c(C(=O)O)[se]c2ncccc12 [Compound 10, 3-[(dimethylamino)diazenyl]selenopheno[2,3-b]pyridine-2-carboxylic acid]?
A: melting point: 172 to 174 °C; inhibition at 60 µg/mL [2]: 12%

Q: With CN(C)/N=N/c1cc(C(C)(C)C)[se]c1C#N [Compound 11, 3-[(dimethylamino)diazenyl]-5-(tert-butyl)selenophene-2-carbonitrile] as the compound, how does the melting point read?
A: 58 to 60 °C

Q: And the inhibition at 60 µg/mL [2]?
A: 48%

Q: With Cn1nnc2cc(-c3ccccc3)[se]c2c1=O [Compound 12, 3-methyl-6-phenylselenopheno[3,2-d]1,2,3-triazin-4-one] as the compound, how does the melting point read?
A: 232 to 234 °C

Q: What about the inhibition at 100 µg/mL [2] of the same compound?
A: 27%

Q: What does the source list for Cn1nnc2cc(C(C)(C)C)[se]c2c1=O [Compound 13, 6-(tert-butyl)-3-methylselenopheno[3,2-d]1,2,3-triazin-4-one]?
A: melting point: 98 to 100 °C; inhibition at 60 µg/mL [2]: 33%

Q: With Cn1nnc2c3c([se]c2c1=O)CCCC3 [Compound 14, 3-methyl-6,7,8,9-tetrahydrobenzo[1,2-b]1,2,3-triazino[4,5-d]selenophen-4-one] as the compound, how does the inhibition at 60 µg/mL [2] read?
A: 17%

Q: For Cn1nnc2c([se]c3ncccc32)c1=O [Compound 15, 3-methyl-1,2,3-triazino[4′,5′-5,4]selenopheno[2,3-b]pyridine-4-one], which melting point is on record?
A: 202 to 204 °C

Q: Which results are given for Cn1nnc2c([se]c3ccccc32)c1=O [Compound 16, 3-methylbenzo[b]1,2,3-triazino[4,5-d]selenophen-4-one]?
A: melting point: 190 to 192 °C; inhibition at 60 µg/mL [2]: 31%
